Experimental data taken from article PMC11721293 (JCI Insight, 2025).
Where “and” joins values, the source holds several entries; their conditions need not be identical. Equal values may be shown once. Read-outs that look alike come from different tables or passages of the source.

Key:
[1] = tested on: VSV-SARS-CoV-2-S pseudovirus; experiment: microbe, parasite or virus in culture; type: cell-based; settings: for EC50: Pseudovirus
[2] = tested on: SARS-CoV-2; type: cell-based; settings: for percentage genome copy number relative to DMSO: 48 h, replicates
[3] = tested on: SARS-CoV-2; experiment: Virus-induced cytopathic effect (CPE) in VeroE6; type: cell-based
[4] = tested on: SARS-CoV-2-nLUC; type: cell-based; settings: Nirmatrelvir 0 uM
[5] = tested on: SARS-CoV-2-nLUC; type: cell-based; settings: Nirmatrelvir 0 uM, sheet S3B, replicates
[6] = tested on: SARS-CoV-2 BA.4.6 (Omicron); type: cell-based; settings: VeroE6, 10 μM LNF, 24 h, DMSO = 100%
[7] = tested on: SARS-CoV-2 spike protein–mediated cell-cell fusion (BA.1); type: cell-based; settings: 48 h
[8] = tested on: SARS-CoV-2 viral entry; type: cell-based; settings: for viral entry signal relative to DMSO (sheet 4D): individual replicates, DMSO about 1
[9] = tested on: SARS-CoV-2 replicon; experiment: microbe, parasite or virus in culture; type: cell-based
[10] = biological target: viral RdRp (Severe acute respiratory syndrome coronavirus 2, UniProt P0DTD1); experiment: In vitro RdRp activity assay (RNA extension); type: biochemical, SARS-CoV-2; settings: LNF 0.1, 1 and 10 μM; TEMPOL 100 μM
[11] = tested on: SARS-CoV-2 strain USA-WA1/2020; type: in vivo, mouse
[12] = tested on: SARS-CoV-2 strain USA-WA1/2020; type: in vivo, mouse; remark: listed apart in the source
[13] = tested on: SARS-CoV-2-WA; type: in vivo, mouse; settings: 50 MPK oral gavage twice daily
[14] = tested on: Calu3 cells; settings: Fig 1F
[15] = in vitro; settings: human
[16] = in vitro; settings: human; remark: listed apart in the source
[17] = Fifty MPK twice daily; cited from earlier work
[18] = tested on: lysosomal compartment; experiment: LysoTracker staining of VeroTA6 cells
Description: (A) VeroTA6 cells were seeded
post treatment, the cells were stained with lysotracker (Thermofisher, L7528) and visualized under
the microscope (left). The fluorescence intensity was captured and quantified for each treatment
B), the significance was calculated using one-way ANOVA with Dunnett’s test with multiple
comparison to the DMSO control, and the P values are depicted as ns for P>0.05, ** for P <0.01,

[19] = Pharmacokinetics after PO administration; settings: K18-hACE2(Tg) C57Bl/6J, mouse, 25 mg/kg; for Kp / half-life: in vivo, PO; for Kp: AUC ratio (Tissue/PL)
[20] = Pharmacokinetics after single IP administration; settings: K18-hACE2(Tg) C57Bl/6J, mouse, 40 mg/kg; for Kp / concentration at 24 h / half-life: in vivo, single IP; for Kp: AUC ratio (Tissue/PL); for concentration at 24 h: C24h

NC(=O)N1CCC(CC(=O)N2CCC([C@H]3c4ncc(Br)cc4CCc4cc(Cl)cc(Br)c43)CC2)CC1 [LNF, lonafarnib]
Max % [1]: 100.0% | EC50 ([1]; Calu-3, 24 h, 24 h, read-out: EC50): 3.17 µM | EC50 ([1]; Huh-7, 24 h, 24 h, read-out: EC50): 4.16 µM | EC50 ([1]; Huh-7, read-out: EC50): 4.2 µM | EC50 ([1]; read-out: EC50 values, range over cell lines): 1.5 to 4.16 µM | EC50 ([1]; read-out: EC50): 3.3 µM | reduction of viral genome copy number in infected cells ([2]; 10 μM, VeroE6 and Calu3): more than 90% | percentage genome copy number relative to DMSO ([2]; Fig 1D, 5 mM (printed)): 15.7327% and 8.267% and 4.447% | percentage genome copy number relative to DMSO ([2]; Fig 1D, 10 mM (printed)): 0.3388% and 0.169% and 0.1887% | percentage genome copy number relative to DMSO ([2]; Fig 1E, 5 mM (printed)): 1.7284% and 12.0506% and 10.6523% and 4.939% | percentage genome copy number relative to DMSO ([2]; Fig 1E, 10 mM (printed)): 0.1445% and 0.1282% and 0.2571% and 0.1291% | effect on virus-induced CPE [3]: rescued the infected cells from virus-induced CPE | Response ([4]; Lonafarnib 2.5 uM): 71.2556 and 72.7427 and 61.8907 | Response ([4]; Lonafarnib 5 uM): 96.7703 and 97.5859 and 97.3674 | Response ([5]; Lonafarnib 0.15625 uM): 2.22 and 4.213 and 2.074 | Response ([5]; Lonafarnib 0.3125 uM): 1.244 and 2.405 and 2.249 | Response ([5]; Lonafarnib 0.625 uM): -2.027 and 1.3173 and 0.3833 | Response ([5]; Lonafarnib 1.25 uM): 5.206 and 5.033 and 2.62 | Response ([5]; Lonafarnib 2.5 uM): 26.488 and 26.5645 and 16.3468 | Response ([5]; Lonafarnib 5 uM): 76.2414 and 75.9942 and 62.6493 | % Genome [6]: 1.73% and 1.25% and 0.58% | relative luciferase signals ([7]; 0.3 (printed)): 93.9702 and 58.6533 and 53.4918 and 75.0181 | relative luciferase signals ([7]; 1 (printed)): 108.194 and 73.2387 and 73.7551 and 89.5366 | inhibition of viral entry [8]: inhibited viral entry | viral entry signal relative to DMSO (sheet 4D) ([8]; TA6 cells): 0.282 and 0.3105 and 0.4405 and 0.3405 and 0.2054 and 0.2625 and 0.3109 and 0.2607 and 0.1876 | viral entry signal relative to DMSO (sheet 4D) ([8]; VeroE6 cells): 0.1605 and 0.1408 and 0.1008 and 0.1281 and 0.213 and 0.1543 and 0.08537 and 0.09496 and 0.1294 | EC50 [9]: 7.8 µM | Inhibition [9]: 99.8867 | Inhibition ([9]; Log[LNF} mM 1): 58.6507 and 68.927 and 62.2766 and 74.1393 | EC50 ([9]; Severe acute respiratory syndrome coronavirus 2, Huh7.5, 24 h): 7.88 µM | polymerase activity, primer extension [10]: not affected | Clinical Score ([11]; Day 5, individual animals): 1 (3×) and 0 (7×) | composite clinical score ([11]; LNF 40 MPK IP, RDV 25 MPK SC, twice daily): much improved disease parameters | Histopathology Score ([12]; Day 2, individual animals): 2 (2×) and 1 and 0.5 and 1.5 (3×) and 0 (3×) | Histopathology Score ([12]; Day 5, individual animals): 0.5 (3×) and 1 (4×) and 2.5 and 1.5 and 0 | lung histopathology score vs vehicle ([12]; day 5): significantly lower histopathology score | lung histopathology score vs vehicle [13]: significantly lower histopathology score | CC50 [14]: > 30 µM | CC50 [15]: > 30 µM | CC50 [16]: > 30 µM | toxicity in preclinical mouse studies [17]: without any toxicity | LysoTracker fluorescence intensity ([18]; VeroTA6, 10 μM, 30 min): significantly higher fluorescence intensity | Lysotracker ([18]; sheet S5A, individual measurements): 1000.41 and 1078.15 and 1357.74 and 1025.55 and 1236.53 and 1375.69 and 1111.13 and 939.183 and 1788.26 and 2301.51 and 898.567 and 730.339 and 642.99 and 1893.93 and 696.429 and 1937.99 and 1199.36 and 1178.39 and 1146.54 and 1719.14 and 1470.88 and 572.253 and 1006.33 | AUC(0-inf) ([19]; brain): 3 µM·h | Cmax ([19]; brain): 0.21 µM | Tmax ([19]; brain): 7 h | AUC(0-inf) ([19]; heart): 97 µM·h | Cmax ([19]; heart): 8.6 µM | Tmax ([19]; heart): 1 h | Kp ([19]; Brain): 0.056 | Kp ([19]; Heart): 1.8 | Kp ([19]; Kidney): 2.1 | Kp ([19]; Liver): 5.2 | Kp ([19]; Lung): 2.4 | half-life ([19]; t1/2, Brain): 2.4 h | half-life ([19]; t1/2, Heart): 2.2 h | half-life ([19]; t1/2, Kidney): 2.4 h | half-life ([19]; t1/2, Liver): 1.7 h | half-life ([19]; t1/2, Lung): 2.1 h | half-life ([19]; t1/2, Plasma): 1.4 h | AUC(0-inf) ([19]; kidney): 113 µM·h | Cmax ([19]; kidney): 9.3 µM | Tmax ([19]; kidney): 1 h | AUC(0-inf) ([19]; liver): 279 µM·h | Cmax ([19]; liver): 20 µM | Tmax ([19]; liver): 7 h | AUC(0-inf) ([19]; lung): 129 µM·h | Cmax ([19]; lung): 33 µM | Tmax ([19]; lung): 0.25 h | AUC(0-inf) ([19]; plasma): 53 µM·h | Cmax ([19]; plasma): 3.8 µM | Tmax ([19]; plasma): 7 h | AUC(0-inf) ([20]; brain): 29 µM·h | Cmax ([20]; brain): 1.46 µM | Tmax ([20]; brain): 7 h | AUC(0-inf) ([20]; heart): 987 µM·h | Cmax ([20]; heart): 94.1 µM | Tmax ([20]; heart): 0.5 h | Kp ([20]; Brain): 0.12 | Kp ([20]; Heart): 3.9 | Kp ([20]; Kidney): 2.8 | Kp ([20]; Liver): 12 | Kp ([20]; Lung): 3.1 | concentration at 24 h ([20]; Brain): 0.36 µM | concentration at 24 h ([20]; Heart): 11.4 µM | concentration at 24 h ([20]; Kidney): 8.24 µM | concentration at 24 h ([20]; Liver): 40.3 µM | concentration at 24 h ([20]; Lung): 8.17 µM | concentration at 24 h ([20]; Plasma): 2.76 µM | half-life ([20]; t1/2, Brain): 8.3 h | half-life ([20]; t1/2, Heart): 10.1 h | half-life ([20]; t1/2, Kidney): 9 h | half-life ([20]; t1/2, Liver): 10.7 h | half-life ([20]; t1/2, Lung): 8.7 h | half-life ([20]; t1/2, Plasma): 8.8 h | AUC(0-inf) ([20]; kidney): 699 µM·h | Cmax ([20]; kidney): 46 µM | Tmax ([20]; kidney): 1 h | AUC(0-inf) ([20]; liver): 3060 µM·h | Cmax ([20]; liver): 224 µM | Tmax ([20]; liver): 0.25 h | AUC(0-inf) ([20]; lung): 788 µM·h | Cmax ([20]; lung): 93.5 µM | Tmax ([20]; lung): 0.25 h | AUC(0-inf) ([20]; plasma): 253 µM·h | Cmax ([20]; plasma): 63.3 µM | Tmax ([20]; plasma): 0.08 h
